Measured values as given in patent US8847018B2, “Plants tolerant to HPPD inhibitor herbicides” (Bayer CropScience AG, priority 2009, dated 2014).
Where “and” joins values, the source holds several entries; their conditions need not be identical. Equal entries are not always repeated.

Tests used:
[1] = target: (Rhodococcus jostii, UniProt Q0SF39); assay: HPLC assay of HPPD in vitro kinetic properties; assay type: biochemical, Rhodococcus sp. (strain RHA1), isolate ro02040
[2] = target: Rhodococcus HPPD SEQ ID No. 19 (FMP23e); assay: HPLC assay of HPPD in vitro kinetic properties; assay type: biochemical, Rhodococcus sp. (strain RHA1), isolate ro02040; settings: 2 mM HPP; SEQ ID No. 19
[3] = tested on: tobacco plants containing FMP23e (HPPD FMP23); assay: Glasshouse trial, herbicidal damage on T1 tobacco; assay type: in vivo, Nicotiana tabacum; settings: 7 DAT, 100 g AI/ha spray; FMP23e line 188, single T1 plants
Procedure: T0 Tobacco plants containing either the gene from Arabidopsis coding for HPPD or the gene FMP22e from Rhodococcus sp. (strain RHA1), isolate ro03041 coding for FMP22 HPPD, or the gene FMP23e from Rhodococcus sp. (strain RHA1), isolate ro02040 mentioned above (Example 3), were transferred to the glasshouse (28/20° C.), to develop further and produce seeds. Those seeds were harvested and put on soil (ED73 mixed with sand and osmocote Pro) to germinate in the glasshouse (28/20° C.). Three to four weeks later, plantlets were transferred to single pots containing the soil mentioned above. Two weeks later, plants of a size 4-6 cm diameter were sprayed with either • tembotrione at 100 gAl/ha prepared from a WP20 (wettable powder 20%) formulation supplemented with ammonium sulfate and methyl ester raps oil, or • isoxaflutole at 100 gAl/ha prepared from a WP20 formulation supplemented with ammonium sulfate and methyl ester raps oil, or • bicyclopyrone at 100 gAl/ha prepared from a WP20 formulation supplemented with ammonium sulfate and methyl ester raps oil, or • “blind formulation” made from a WP20 formulation without active ingredient (Al) supplemented with ammonium sulfate and methyl ester raps oil, and were then transferred to a growth chamber with adequate light conditions (20000 Lux).

[4] = tested on: T0 tobacco plants containing FMP22t; assay: Response of T0 tobacco plants to tembotrione; assay type: in vivo, Nicotiana tabacum; settings: 100 g AI/ha, two weeks after treatment
Procedure: (§1) As an example, rooted plants containing the T-DNA PromCaMV35S-OTP-HIS6-FMP22t-TerCaMV35S or containing the T-DNA PromCaMV35S-OTP-HIS6-FMP23t-TerCaMV35S, are transferred to the greenhouse under standard growth conditions. Following a period of acclimation of two weeks, the T0 plants are treated with a mixture containing 100 g tembotrione/ha prepared from a WP20 (wettable powder 20%) formulation supplemented with ammonium sulfate and methyl ester raps oil.
(§2) Two weeks after the treatment, the symptoms due to the application of the herbicides are evaluated. The plants are classified in four categories. The treated plants evaluated as “0” are looking like the untreated tobacco plants. The plants evaluated as “1” display temporarily light bleaching phenotype due to the application of the herbicides. The plants evaluated as “2” display permanent light to strong bleaching symptoms. Finally the plants evalutated as “3” are looking like wild type tobacco plants submitted to the same treatment.

[5] = tested on: T0 tobacco plants containing FMP23t; assay: Response of T0 tobacco plants to tembotrione; assay type: in vivo, Nicotiana tabacum; settings: 100 g AI/ha, two weeks after treatment
Procedure: as §1, §2

[6] = tested on: rice shoots containing FMP22e; assay: Bleaching of rice shoots on MS/2 with tembotrione; assay type: cell-based; settings: 2 weeks
Procedure: (§3) Rice transformation is achieved using methods well known in the art. Briefly, the Agrobacterium tumefaciens mediated transformation of rice was performed using immature embryos, from the restorer line 6G4317. Briefly, panicles from donor plants were harvested 8-12 days after pollination. The lemma of the immature seed was removed. Seeds were thereafter sterilized using a NaOCl based solution and Tween. The seeds were preinduced with […]. Agrobacterium tumefaciens cells are then co-cultivated with the preinduced seeds in presence of acetosyringone for 4 days at 24° C. in the dark. Thereafter, coleoptile from embryos are removed and washed, then put on a media supplemented with phosphinothricin for 3 weeks at 28° C. under a photoperiod rhythm of 16 hours. Then the growing calli were cut off from the embryos, and transferred to fresh media containing triacillin, phosphinothricin, L-proline and copper (II) sulfate.
(§4) For each callusline and per Tembotrione concentration, 3 shoots, and randomly isolated from different callus pieces, were transferred to MS/2 with Tembotrione. As a general rule, transfer of the shoots from regeneration medium to MS/2 occurred 9 weeks after calli had been put on regeneration medium.
(§5) Cultures were incubated at 26.5° C. (16 hrs. photoperiod) and evaluation of symptoms occurred 2 weeks later.
(§6) New developing leaves of the shoots transferred have been scored on the basis of bleaching and categorized in 3 groups:
(§7) Within the category ‘intermediate bleaching’ a distinction has been made between shoots having new leaves showing only very little bleaching symptoms and thus tending to green leaves, and shoots with new leaves almost completely bleached.

[7] = tested on: rice shoots containing FMP23e; assay: Bleaching of rice shoots on MS/2 with tembotrione; assay type: cell-based; settings: 2 weeks
Procedure: as §3, §4, §5, §6, §7

[8] = target: T1, Arabidopsis thaliana HPPD SEQ ID No. 10 (Arabidopsis thaliana, UniProt P93836); assay: HPLC assay of HPPD in vitro kinetic properties
T1 sequence (P93836 with tags, fused parts or gaps): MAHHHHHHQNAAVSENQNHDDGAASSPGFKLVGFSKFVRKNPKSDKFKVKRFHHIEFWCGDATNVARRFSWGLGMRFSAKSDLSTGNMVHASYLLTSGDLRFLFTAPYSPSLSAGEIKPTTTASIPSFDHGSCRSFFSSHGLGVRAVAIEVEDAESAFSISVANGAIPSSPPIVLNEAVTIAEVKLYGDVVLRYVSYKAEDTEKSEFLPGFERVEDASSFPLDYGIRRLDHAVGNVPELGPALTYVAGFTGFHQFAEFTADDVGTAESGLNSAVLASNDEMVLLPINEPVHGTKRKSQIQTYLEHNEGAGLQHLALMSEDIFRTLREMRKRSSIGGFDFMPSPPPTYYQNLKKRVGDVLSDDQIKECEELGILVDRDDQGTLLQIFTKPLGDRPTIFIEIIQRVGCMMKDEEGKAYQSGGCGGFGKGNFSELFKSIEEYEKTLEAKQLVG
Procedure: All assays were started by the addition of HPPD enzyme to the assay mixture and stopped at a series of times between 0 and 240 s by addition of 200 μl of the reaction mixture to reaction assay tubes containing 20 μl 10% perchloric acid. Precipitated protein was pelleted by a 5 minute centrifugation at 10,000 g. […] For Km and Vmax value determinations the initial rates of the HPPD reaction at different substrate concentrations were determined from plots of HGA formed versus time and fitted to the Michaelis-Menten equation for unireactant enzymes using the ID Business Solutions Ltd. (idbs.com) XLfit software suite.

`CS(=O)(=O)c1ccc(C(=O)C2C(=O)CCCC2=O)c(Cl)c1COCC(F)(F)F` [Tembotrione, 2-[2-chloro-4-(methylsulfonyl)-3-[(2,2,2,-tri-fluoroethoxy)methyl]benzoyl]-1,3-cyclo-hexanedione] showed a kon ([1]; read-out: k1 (Kon, association rate constant)) of 3200 M⁻¹ s⁻¹, a koff ([1]; read-out: k−1 (Koff, enzyme-inhibitor complex dissociation)) of 0.0063 s⁻¹ and a Ki [2] of 2000 nM. The “% injury” value [3] was 0% and 5%, the “number of plants in category 0 (looking like untreated tobacco plants)” value [4] was 4 and the “number of plants in category 1 (temporarily light bleaching)” value [4] was 2. The “number of plants in category 2 (permanent light to strong bleaching)” value [4] was 5, the “number of plants in category 3 (like treated wild type tobacco plants)” value [4] was 3 and the “number of plants in category 0 (looking like untreated tobacco plants)” value [5] was 5. The “number of plants in category 3 (like treated wild type tobacco plants)” value [5] was 4, the “N° of shoots completely bleached” value ([6]; 1 μM) was 14 and the “N° of shoots with intermediate bleaching” value ([6]; 1 μM) was 9. The “N° of shoots without bleaching” value ([6]; 1 μM) was 35, the “N° of shoots completely bleached” value ([6]; 5 μM) was 16 and the “N° of shoots with intermediate bleaching” value ([6]; 5 μM) was 38. The “N° of shoots without bleaching” value ([6]; 5 μM) was 6, the “N° of shoots completely bleached” value ([7]; 1 μM) was 14 and the “N° of shoots with intermediate bleaching” value ([7]; 1 μM) was 5. For the same compound, the “N° of shoots without bleaching” value ([7]; 1 μM) was 39, the “N° of shoots completely bleached” value ([7]; 5 μM) was 25 and the “N° of shoots with intermediate bleaching” value ([7]; 5 μM) was 20. For the same compound, the Ki [8] was 15 nM.
